Data as given in US20260159474A1, “Aminoindane Compounds and Compositions and Methods of Their Therapeutic Use” (Solvonis Therapeutics Ireland Holdings Limited, priority 2021, published 2026).
Values after ≈ are worked out from the molar mass of the structure shown.

Experiments:
[1] = Solubility in PBS (pH 7.4), HPLC-UV; assay type: physicochemical; details: for solubility at 120 min: PBS pH 7.4, room temperature, 2% DMSO; for Characterization (solubility class): PBS pH 7.4
Procedure: Stock solutions of therapeutic compounds (20 mM) were prepared in DMSO, on the same day of the experiment when feasible. These solutions were compared with an external standard solution of known concentration via HPLC-UV. To prepare the standard, 4 μL from a 20 mM compound stock solution was added to DMSO in a vial/well, and mixed with shaking at room temperature for 10 minutes. The standard buffer used for the assessment was PBS buffer (pH 7.4), but alternative buffers may also be used, such as biologically relevant Fluids, including Simulated Gastric fluid (SGF) at pH 1.2, Fasted State Simulated Intestinal Fluid (FaSSIF) at pH 6.5, and Fed State Simulated Intestinal Fluid (FeSSIF) at pH 5.0.
An isotonic phosphate buffer (iPBS) was prepared by dissolving a phosphate buffered saline tab (Sigma-Aldrich P4417-50Tab) in 200 mL of deionized water, the final composition of the solution being 10 mM PBS, 2.7 mM kCl, and 137 mM NaCl, yielding a final pH of 7.4 at 25° C. Samples were prepared by dispensing 8 μL from a 20 mM compound stock solution in DMSO in a vial/well in duplicate, adding 392 μL of buffer in each vial/well, and mixed by shaking at room temperature for 120 minutes. The final compound concentration was approximately 400 μM, while the final concentration of DMSO was about 2%. The solutions were then filtered prior to analysis.
Concentrations were determined by comparing UV absorbance of the test solution and of the known standard solution following HPLC separation using a generic fast gradient method employing a DAD detector and UV detection at 230 and 254 nm. Concerning the HPLC Mobile phase, Phase A was a 50 mM ammonium acetate aqueous solution (pH adjusted to 7.4 with ammonia), and Phase B was acetonitrile. For data analysis, chromatographic peaks were automatically integrated, and the parameters were optimized to enable consistent integration of all chromatograms in the entire analytical run. The solubility of each compound was expressed as the ratio of compound amount in the sample test solution to the amount of compound in the standard solution, calculated from the equation “solubility of sample=peak area of sample/peak area of standard×concentration of standard.”

[2] = test system: extracellular dopamine (DA) in the nucleus accumbens (NAcc); assay: In vivo microdialysis in rat nucleus accumbens, dopamine; parameters: species or system Sprague Dawley rats; details: 7 mg/kg I.P.
Procedure: Methods and Procedure: This study was conducted in compliance with previously described procedures to assure data integrity, adherence to GLP regulations, and standard preclinical study and surgery procedures. The in vivo microdialysis technique was applied to measure the over-time variations of DA, 5-HT, and NE extracellular (EC) concentrations in conscious, freely-moving Sprague Dawley rats. Levels of the neurotransmitters in microdialysis samples were determined using LC-MS/MS analysis. The experiment was also conducted with MDMA for comparative purposes.
As it relates to cannula implantation, the rats were anesthetized with isoflurane 4% in oxygen (2-2.5 L/min), then the isoflurane concentration 2-2.5% was maintained via a nose cone adapted to the stereotaxic apparatus. The rats were treated with meloxicam (0.2 mg/kg, subcutaneously, sc; Meloxidolor) and amoxicilline (150 mg/kg, sc, Betamox LA). The skull was then shaved and disinfected. Rats were then placed in a stereotaxic apparatus for small animals. One vertical guide cannula was inserted through a 1 mm hole drilled on the exposed skull. Coordinates, with respect to the bregma to target specific brain areas, followed indications from stereotaxic atlas of the rat brain. Specifically a guide cannula (MAB 4.12.IC, Agn Tho's AB, Lidinga, Sweden) was inserted in the NAcc (anteroposterior+1.6; lateral −1.6; dorsoventral −6.0). The guide cannula was then secured with dental cement and 2-4 screws. At the end of the surgery the animal was isolated in a single cage during recovery, for a period of at least one week, during which animal health conditions were checked twice daily and the weight recorded twice a week. Animals continued to be housed singly throughout the experiment. One day before the experiment the cannula stylet was removed and a microdialysis probe with a dialyzing length of 2 mm (MAB 4.12.2 Cu, Agn Tho's AB, Lidingo, Sweden) was inserted. Probes can be re-used 2 times for 2 experimental sessions after appropriate cleaning with fresh milliQ water.
Post-surgery, the rats were maintained in a heating chamber prior to waking up in order to avoid hypothermia that could be caused by anaesthesia. 5 mL of physiologic solution was subcutaneously administered immediately after surgery, and once/day for 2-3 days, if signs of dehydration are noticed. Meloxicam (Meloxidolor) 0.2 mg/kg was again administered subcutaneously the day after surgery as well as after 48 h after surgery together with Amoxicilline Long Acting (Betamox LA) 150 mg/kg. Health status and body weight was checked every day during the first week.
The animals were treated with the therapeutic compounds, and MDMA, or their vehicle (saline) according to a Latin square design over 5 separate experimental days (one day/week). The treatments were administered in a volume of 1 mL/kg intraperitoneally.
On the day of the experiment, each animal was taken into the laboratory in its home cage. Inlet tubing of the probe was attached to a dual quartz-lined two channel liquid swivel mounted on a low mass spring counterbalance arm which, in turn, was connected to a gas-tight syringe on a microinfusion pump. […] An equilibration period of about two hours of perfusion was allowed before collecting samples. Following the equilibration period, 4 basal samples were collected for each experimental animal followed by further 10 post-treatment samples. Samples were collected every 20 minutes (up to 3 hours and 20 minutes post-treatment) by means of a refrigerated auto-sampler (Univentor 820 Microsampler, AgnTho's, Sweden) maintained at +8 “C. At the end of all experimental sessions, 2 μL of 0.1% methylene blue solution was injected through the microdialysis probe, animals were euthanized, and their brains removed to confirm the correct probe-position.
As mentioned, the concentration of DA, 5-HT and NE in CSF samples were determined using an optimized method based on LC-MS/MS analysis. […]

[3] = PBS buffer, aqueous buffer, kinetic from dmso stock

SMILES | solubility at 120 min [1, 3] | Characterization (solubility class) [1] | Dopamine (DA) level (% from baseline) ([2]; 0 min (basal sample)) | Dopamine (DA) level (% from baseline) ([2]; 20 min post-admin) | Dopamine (DA) level (% from baseline) ([2]; 40 min post-admin) | Dopamine (DA) level (% from baseline) ([2]; 60 min post-admin) | Dopamine (DA) level (% from baseline) ([2]; 80 min post-admin) | Dopamine (DA) level (% from baseline) ([2]; 100 min post-admin) | Dopamine (DA) level (% from baseline) ([2]; 120 min post-admin) | Dopamine (DA) level (% from baseline) ([2]; 140 min post-admin) | Dopamine (DA) level (% from baseline) ([2]; 160 min post-admin) | Dopamine (DA) level (% from baseline) ([2]; 180 min post-admin) | Dopamine (DA) level (% from baseline) ([2]; 200 min post-admin) | Dopamine (DA) level (% from baseline) ([2]; −20 min (basal sample)) | solubility at 120 min [1]
COC(=O)c1ccc2c(c1)CC(N)C2 (stereo not drawn) [CMP-405, 2-aminoindane-5-methylcarboxylate] | 392 µM (≈ 75 µg/mL) | High solubility | 99% | 134% | 122% | 139% | 117% | 123% | 113% | 99% | 98% | 96% | 107% | 101% | 
COc1ccc2c(c1)CC(N)C2 (stereo not drawn) [MEAI, 5-methoxy-2-aminoindane] | 374 µM (≈ 61 µg/mL) | High solubility | 96% | 95% | 197% | 187% | 154% | 141% | 130% | 131% | 137% | 144% | 127% | 104% | 
CNC(C)Cc1ccc2c(c1)OCO2 (stereo not drawn) [MDMA] |  | High solubility | 93% | 113% | 381% | 520% | 448% | 399% | 396% | 357% | 324% | 293% | 278% | 107% | 386 µM (≈ 74.6 µg/mL)
